In the test the test system is spleen cells of 6-9 week old NOD mice. In words: IFNγ ELISA and ELISA spot of spleen cells challenged with antigen. The test is classed as cell-based. On the procedure: In one series of experiments γ interferon (IFNγ) was measured by ELISA in culture supernatants (CSN) of spleen cells of 6-9 week old mice after challenge with GAD or control antigens HEL and MBP. Additionally, the frequency of antigen specific, IFNγ-producing cells was determined by an ELISA spot technique (T. Taguchi, et al., J. Immunol., 145:68-77, 1990). Frequency of antigen-induced, spot forming cells (SFC) among 10^3 spleen cells is represented in FIG. 9(a). Values are the mean+SEM from 5 individual female NOD mice, each tested in triplicate cultures with or without antigen. Results from a single experiment are shown. These are representative of 3 separate experiments.
In performing these experiments, freshly isolated spleen cells were cultured with or without antigen as described in Example 4. CSN were taken after 48 h and the concentration of IFNγ was determined by ELISA (Macy, et al., FASEB J., 3003-3009, 1988). IFNγ specific monoclonal antibody (mAb) R4-6A2 (Pharmingen) was used as the capturing reagent and biotinylated mAb XMG 1.2 (Pharmingen, also specific for IFNγ) was used in conjunction with streptavidin-alkaline phosphatase (Zymed) and […] for detection of bound lymphokine. […] Spots were counted visually and the frequency of antigen specific cells was determined from the difference between the number of spots seen with and without antigen.
In general terms: In an ELISA, binding on a coated surface is turned into a signal by an enzyme label.

Consider “GAD: human GAD65 purified from recombinant bacteria on the basis of a hexahistidine tag”, for which the “IFNγ in culture supernatants after antigen challenge” value (48 h, ELISA) is “high concentrations of IFNγ”. Moreover, the “frequency of antigen-reactive (IFNγ spot forming) T-cells in the spleen” value (ELISA spot) is recorded as 90-291 cells per 10^5 cells.

(Values after patent publication US5998366A, “Method for ameliorating glutamic acid decarboxylase associated autoimmune disorders” (The Regents of the University of California, priority 1997, dated 1999).)
